Source: patent US9403808B2, “Pyrazine derivatives” (Hoffmann-La Roche Inc., priority 2011, dated 2016)

Key:
human CB2 receptors = human CB2 receptors (Homo sapiens (Human), UniProt P34972); assay: functional cAMP assay, CB2; assay type: cell-based; conditions: functional cAMP assay, CHO cells expressing human CB2; read-out: human CB2 EC50
Outline: (§1)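 CHO cells expressing human CB1 or CB2 were preincubated 30 min at 30 °C in Krebs Ringer bicarbonate buffer with 1 mM IBMX, then exposed to compound for 30 min at 30 °C. cAMP was measured by TR-FRET (cAMP-Nano-TRF) against a 10 μM–0.13 nM cAMP standard curve, and EC50 values were derived.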

human CB1 receptors = human CB1 receptors (Homo sapiens (Human), UniProt P21554); assay: functional cAMP assay, CB1; assay type: cell-based; conditions: functional cAMP assay, CHO cells expressing human CB1; read-out: human CB1 EC50
human CB1 receptors, sequence (P21554 whole entry): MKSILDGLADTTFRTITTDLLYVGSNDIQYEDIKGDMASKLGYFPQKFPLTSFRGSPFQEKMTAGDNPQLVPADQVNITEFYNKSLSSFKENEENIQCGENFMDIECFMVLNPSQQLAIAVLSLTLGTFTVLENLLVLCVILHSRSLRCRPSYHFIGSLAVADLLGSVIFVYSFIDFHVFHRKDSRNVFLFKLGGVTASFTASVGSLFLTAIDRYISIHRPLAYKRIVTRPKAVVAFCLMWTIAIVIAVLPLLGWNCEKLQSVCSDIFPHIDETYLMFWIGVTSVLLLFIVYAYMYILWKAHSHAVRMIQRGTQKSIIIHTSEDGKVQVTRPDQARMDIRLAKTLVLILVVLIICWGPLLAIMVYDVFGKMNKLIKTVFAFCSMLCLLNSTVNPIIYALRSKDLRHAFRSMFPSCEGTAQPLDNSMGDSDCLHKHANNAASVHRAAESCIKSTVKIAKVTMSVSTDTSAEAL
Outline: as §1

human CB2 receptors, sequence (P34972 whole entry): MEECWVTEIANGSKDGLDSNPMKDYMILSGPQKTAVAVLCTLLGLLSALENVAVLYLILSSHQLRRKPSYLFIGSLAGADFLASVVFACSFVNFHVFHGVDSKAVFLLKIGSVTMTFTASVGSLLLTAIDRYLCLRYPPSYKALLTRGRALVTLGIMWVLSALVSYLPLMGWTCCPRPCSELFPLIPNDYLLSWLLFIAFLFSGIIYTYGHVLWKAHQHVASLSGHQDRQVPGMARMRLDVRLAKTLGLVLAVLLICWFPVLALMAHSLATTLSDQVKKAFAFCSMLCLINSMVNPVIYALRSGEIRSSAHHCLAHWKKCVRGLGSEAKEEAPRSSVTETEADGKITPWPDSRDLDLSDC

Structure (SMILES) | EC50 (human CB2 receptors) | EC50 (human CB1 receptors)
CN(C)C(=O)C(CC1CCC1)NC(=O)c1cnc(N2CC(F)(F)C2)c(OCC2CC2)n1 (stereo not shown) [Example 97, 6-Cyclopropylmethoxy-5-(3,3-difluoro-azetidin-1-yl)-pyrazine-2-carboxylic acid (2-cyclobutyl-1-dimethylcarbamoyl-ethyl)-amide] | 0.0204 µM | > 10 µM
CNC(=O)C(CC1CCC1)NC(=O)c1cnc(C2CC2)c(OCC2CC2)n1 (stereo not shown) [Example 98, 5-Cyclopropyl-6-cyclopropylmethoxy-pyrazine-2-carboxylic acid (2-cyclobutyl-1-methylcarbamoyl-ethyl)-amide] | 0.0593 µM | > 10 µM
COCCC(C)(C)NC(=O)c1cnc(N2CC(F)(F)C2)c(OCC2CC2)n1 [Example 99, 6-Cyclopropylmethoxy-5-(3,3-difluoro-azetidin-1-yl)-pyrazine-2-carboxylic acid (3-methoxy-1,1-dimethyl-propyl)-amide] | 0.0103 µM | > 10 µM
O=C(NC(CO)CC1CCC1)c1cnc(N2CC(F)(F)C2)c(OCC2CC2)n1 (stereo not shown) [Example 100, 6-Cyclopropylmethoxy-5-(3,3-difluoro-azetidin-1-yl)-pyrazine-2-carboxylic acid (1-cyclobutylmethyl-2-hydroxy-ethyl)-amide] | 0.0073 µM | > 10 µM
NC(=O)C(CC1CCC1)NC(=O)c1cnc(N2CC(F)(F)C2)c(OCC2CC2)n1 (stereo not shown) [Example 101, 6-Cyclopropylmethoxy-5-(3,3-difluoro-azetidin-1-yl)-pyrazine-2-carboxylic acid (1-carbamoyl-2-cyclobutyl-ethyl)-amide] | 0.0056 µM | > 10 µM
CC(C)(CCc1ccccc1)NC(=O)c1cnc(N2CC(F)(F)C2)c(OCC2CC2)n1 [Example 102, 6-Cyclopropylmethoxy-5-(3,3-difluoro-azetidin-1-yl)-pyrazine-2-carboxylic acid (1,1-dimethyl-3-phenyl-propyl)-amide] | 0.0025 µM | > 10 µM
CN(C)C(=O)C(CC1CCC1)NC(=O)c1cnc(C2CC2)c(OCC2CC2)n1 (stereo not shown) [Example 103, 5-Cyclopropyl-6-cyclopropylmethoxy-pyrazine-2-carboxylic acid (2-cyclobutyl-1-dimethylcarbamoyl-ethyl)-amide] | 0.0192 µM | > 10 µM
NC(=O)C(CC1CCC1)NC(=O)c1cnc(C2CC2)c(OCC2CC2)n1 (stereo not shown) [Example 104, 5-Cyclopropyl-6-cyclopropylmethoxy-pyrazine-2-carboxylic acid (1-carbamoyl-2-cyclobutyl-ethyl)-amide] | 0.0429 µM | > 10 µM
O=C(NC(CO)CC1CCC1)c1cnc(C2CC2)c(OCC2CC2)n1 (stereo not shown) [Example 105, 5-Cyclopropyl-6-cyclopropylmethoxy-pyrazine-2-carboxylic acid (1-cyclobutylmethyl-2-hydroxy-ethyl)-amide] | 0.037 µM | > 10 µM
CC(C)(CC(N)=O)NC(=O)c1cnc(C2CC2)c(OCC2CC2)n1 [Example 106] | 0.0432 µM | > 10 µM
CC(C)(CC(N)=O)NC(=O)c1cnc(N2CC(F)(F)C2)c(OCC2CC2)n1 [Example 107, 6-Cyclopropylmethoxy-5-(3,3-difluoro-azetidin-1-yl)-pyrazine-2-carboxylic acid (2-carbamoyl-1,1-dimethyl-ethyl)-amide] | 0.0118 µM | 0.874 µM
